{
  "source": "patent US6153651A",
  "about": "“Ortho-substituted benzoylguanidines, process for their preparation, their use as a medicament or diagnostic, and medicament comprising them” (Hoechst Aktiengesellschaft, priority 1996, dated 2000)",
  "note": "Counter-ions that a name gives are not always drawn.",
  "data": [
    {"target": "T1, rabbit erythrocyte Na^+ /H^+ exchanger (Oryctolagus cuniculus, UniProt P23791)", "T1 construct": "endogenous in cells; host or cells: rabbit erythrocytes (whole heparinized blood of cholesterol-fed New Zealand White rabbits, Ivanovas)", "T1 sequence (P23791 whole entry)": "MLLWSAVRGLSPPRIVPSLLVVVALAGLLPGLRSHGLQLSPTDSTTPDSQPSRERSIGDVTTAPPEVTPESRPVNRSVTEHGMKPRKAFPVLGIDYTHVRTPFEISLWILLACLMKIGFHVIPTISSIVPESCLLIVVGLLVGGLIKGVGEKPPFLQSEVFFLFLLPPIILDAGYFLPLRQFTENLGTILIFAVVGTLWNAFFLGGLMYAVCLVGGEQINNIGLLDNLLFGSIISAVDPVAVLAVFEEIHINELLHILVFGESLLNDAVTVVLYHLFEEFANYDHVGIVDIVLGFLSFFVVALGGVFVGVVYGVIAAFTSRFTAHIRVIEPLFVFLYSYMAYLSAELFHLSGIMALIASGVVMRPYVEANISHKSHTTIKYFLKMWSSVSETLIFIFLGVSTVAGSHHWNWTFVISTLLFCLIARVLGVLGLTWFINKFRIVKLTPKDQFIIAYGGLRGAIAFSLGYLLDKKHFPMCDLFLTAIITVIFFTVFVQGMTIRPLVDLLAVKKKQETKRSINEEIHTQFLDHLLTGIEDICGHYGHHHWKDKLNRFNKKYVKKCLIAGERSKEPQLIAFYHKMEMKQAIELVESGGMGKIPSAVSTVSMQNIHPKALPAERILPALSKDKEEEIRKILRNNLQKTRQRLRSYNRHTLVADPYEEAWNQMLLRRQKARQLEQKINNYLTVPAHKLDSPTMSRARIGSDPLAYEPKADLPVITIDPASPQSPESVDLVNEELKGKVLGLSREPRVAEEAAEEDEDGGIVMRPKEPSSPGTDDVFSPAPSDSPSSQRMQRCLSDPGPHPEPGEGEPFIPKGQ", "assay": "Inhibition of the rabbit erythrocyte Na^+ /H^+ exchanger (amiloride-sensitive Na^+ influx, flame photometry)", "type": "cell-based, rabbit (New Zealand White)", "details": "erythrocytes of rabbits fed 2% cholesterol for six weeks; pH 7.4, 37° C., hyperosmolar salt/sucrose medium", "text": "Inhibition of the rabbit erythrocyte Na^+ /H^+ exchanger New Zealand White rabbits (Ivanovas) were given a standard diet containing 2% cholesterol for six weeks in order to activate Na^+ /H^+ exchange and thus render it possible to use flame photometry to determine the influx of Na+into the erythrocytes by way of Na^+ /H^+ exchange. The blood was withdrawn from the aural arteries and rendered incoagulable by adding 25 IU of potassium heparin. A part of each sample was used for determining the hematocrit in duplicate by means of centrifugation. Aliquots of in each case 100 μl were used to measure the initial content of Na^+ in the erythrocytes.\nIn order to determine the amiloride-sensitive sodium influx, 100 μl of each blood sample were in each case incubated, at pH 7.4 and 37° C., in 5 ml of a hyperosmolar salt/sucrose medium (mmol/l: 140 NaCl, 3 KCl, 150 sucrose, 0.1 ouabain, 20 tris(hydroxymethyl)aminomethane). After that, the erythrocytes were washed three times with an ice cold solution of MgCl2 /ouabain (mmol/l: 112 MgCl2, 0.1 ouabain) and hemolyzed in 2.0 ml of distilled water. The intracellular content of sodium was determined by flame photometry.\nThe net influx of Na^+ was calculated from the difference between the initial sodium values and the sodium content of the erythrocytes after incubation. The amiloride-inhibitable sodium influx was obtained from the difference in the sodium content of the erythrocytes after incubation with and without 3×10^-4 mol/l amiloride. The same procedure was used in the case of the novel compounds.", "units": {"IC50": "nM"}, "values": [
      {"smiles": "COc1c(I)cc(C(F)(F)F)cc1C(=O)N=C(N)N", "note": "[Example 2, 2-Methoxy-3-iodo-5-trifluoromethylbenzoylguanidine hydrochloride]", "IC50": 17},
      {"smiles": "COc1c(C(=O)N=C(N)N)cc(C(C)(C)C)cc1C(C)(C)C", "note": "[Example 6, 3,5-Bis-tert-butyl-2-methoxybenzoylguanidine hydrochloride]", "IC50": 1000},
      {"smiles": "COc1cc(OC)c(C(F)(F)F)cc1C(=O)N=C(N)N", "note": "[Example 7, 2,4-Dimethoxy-5-trifluoromethylbenzoylguanidine hydrochloride]", "IC50": 200},
      {"smiles": "COc1cc(C(F)(F)F)cc(C(=O)N=C(N)N)c1OC", "note": "[Example 1, 2,3-Dimethoxy-5-trifluoromethylbenzoylguanidine hydrochloride]", "IC50": 53},
      {"smiles": "COc1cc(C)ccc1C(=O)N=C(N)N", "note": "[Example 5, 2-Methoxy-4-methylbenzoylguanidine hydrochloride]", "IC50": "> 1000"}
    ]}
  ]
}
